Results on one molecule are retold here after patent US20080249074A1, “Composition for the Transdermal Administration of Physiologically Active Agents” (LABORATORIOS BELMAC, S.A., priority 2005, published 2008).

The subject of this assay is carrageenan-induced rat paw plantar edema. As to the kind of experiment: Anti-inflammatory effect of oleuropein compositions in the form of an oil. The class given is in vivo. To be noted: for increase % vs. V0 / inhibition % vs. blank-vehicle / increase vs. V0 % / inhibition vs. blank-vehicle %: topical; for increase % vs. V0 / inhibition % vs. blank-vehicle: V1, 60 minutes; for increase vs. V0 % / inhibition vs. blank-vehicle %: V2, 180 minutes. Here is the method:
The test was performed according to the method disclosed by Winter et al. (Proc. Soc. Exp. Biol. Med. 1962; vol. 111, pp. 544-547), adapted to the rat paw. The method consisted in the injection of 100 μl of a 0.75% carrageenan solution in physiological saline in the plantar face of the left hind paw of the rat. The volume of the paws was determined by a plethysmometer just before the injection of the carrageenan (V0), 60 minutes after the injection (V1) and 180 minutes (V2) after the injection.
The tested substances were administered topically according to a modification of the method disclosed by Mass6 et al. (Rev. Farmacol. Clin. Exp. 1990, vol. 7, p. 85), following a blind and randomized trial. 100 μl of the substance to be tested were applied over the paw of the animal, spread over the whole surface of the paw, massaging until the complete absorption. The application was repeated 2 times, namely 18 h before the injection of carrageenan and 60 minutes before said injection. Simultaneously to the application, 30 ml/kg of distilled water were administered orally.
Using the method described in Example 7, the anti-inflammatory effect of the four compositions in the form of an oil prepared according to Example 1, which comprised a 0.1%, 0.2%, 0.4%, and 0.8% of oleuropein w/w, respectively, was studied. The blank-vehicle was prepared by the same method as the compositions tested excluding the active ingredient.
The mean±S.E.M. of the volumes of the animal paws was calculated for the three observation periods V0, V1 and V2. The average values of every experimental group were used for the determination of the average increase of the volume of the paws as an effect of the injection of carrageenan during the periods of observation V1 and V2 with regard to the initial volume (V0), and, then, the percentages of the variation of said values with regard to the blank-vehicle group were determined. Finally, the 50% Effective Concentration (EC 50) was calculated through a linear regression optimized by the least squares method. The evaluation of the statistic signification of the variation was performed by the Student's t-test for independent data using a p<0.05 level to establish the difference criteria. […] However, as estimation, it is obtained that EC 50 of the oleuropein composition in the form of an oil is about 0.7%.

As to `C/C=C1/[C@H](O[C@@H]2O[C@H](CO)[C@@H](O)[C@H](O)[C@H]2O)OC=C(C(=O)OC)[C@H]1CC(=O)OCCc1ccc(O)c(O)c1` [Oleuropein, oleuropein], where the note is “0.1% (w/w) oleuropein oil”, the “increase % vs. V0” value came out at 27.39%, the “inhibition % vs. blank-vehicle” value worked out at 14.62%, the “increase vs. V0 %” value is given as 43.59% and the “inhibition vs. blank-vehicle %” value is on record as 12.38%. Besides, under “0.2% (w/w) oleuropein oil”, the “increase % vs. V0” value was 24.75%, the “inhibition % vs. blank-vehicle” value turned out to be 22.86%, the “increase vs. V0 %” value was determined as 36.80% and the “inhibition vs. blank-vehicle %” value turned out to be 26.03%. Further, where the note is “0.4% (w/w) oleuropein oil”, the “increase % vs. V0” value is given as 18.55%, the “inhibition % vs. blank-vehicle” value was found to be 42.19%, the “increase vs. V0 %” value is 26.80% and the “inhibition vs. blank-vehicle %” value was determined as 46.13%. In addition, where the note is “0.8% (w/w) oleuropein oil”, the “increase % vs. V0” value was 16.13%, the “inhibition % vs. blank-vehicle” value is 49.73%, the “increase vs. V0 %” value came out at 25.71% and the “inhibition vs. blank-vehicle %” value is reported as 48.31%. In addition, the “maximum estimated effect, inhibition” value (oily composition of oleuropein) is recorded as “about 50%”. Also, the “concentration up to which the effect is lineal” value (oleuropein concentration in the oil composition) is “about 0.4%”. The “50% Effective Concentration (EC 50)” value (oleuropein concentration in the oil composition, linear regression by least squares, estimation) was “about 0.7%”.
